Columns and labels:
[1] = tested on: Chenopodium album; experiment: Herbicidal mixture trial, percentage weed control; format: in vivo; conditions: Pinoxaden 46 g/ha, Metribuzin 280 g/ha, 2,4-D 500 g/ha
Description: (§1) Trials were carried out for evaluating the herbicidal mixtures of the invention on different weeds. The percentage control was calculated from the observed percent weed coverage data after 15 DAA and 30 DAA.

[2] = tested on: Phalaris minor; experiment: Herbicidal mixture trial, percentage weed control; format: in vivo; conditions: Pinoxaden 46 g/ha, Metribuzin 280 g/ha, 2,4-D 500 g/ha
Description: as §1

[3] = 15 DAA, combination 64 g/ha + 725 g/ha + 280 g/ha
[4] = 30 DAA, combination 64 + 725 + 280

SMILES | percentage control, Actual [1, 3] | percentage control, Actual [1, 4] | percentage control, Actual [2, 3] | percentage control, Actual [2, 4]
O=C(O)COc1ccc(Cl)cc1Cl [2,4-D] | 90.3% | 86% | 29% | 30.2%
CSc1nnc(C(C)(C)C)c(=O)n1N [Metribuzin] | 78% | 88% | 67.4% | 73.8%
CCc1cc(C)cc(CC)c1-c1c(OC(=O)C(C)(C)C)n2n(c1=O)CCOCC2 [Pinoxaden, N 8-(2,6-diethyl-p-tolyl)-1,2,4,5-tetrahydro-7-oxo-7H-pyrazolo[1,2-d][1,4,5]oxadiazepin-9-yl 2,2-dimethylpropionate] | 68% | 85.3% | 53.4% | 73.6%
